Reference: patent US10555987B2, “GHRH agonists for the treatment of ischemic disorders” (UNIVERSITY OF MIAMI, priority 2012, dated 2020)
Non-standard residues stand in square brackets, D forms with d. Residues, ends and D or L forms follow the SMILES beside them. *: point of attachment. Desaminotyrosyl = O=C(CCc1ccc(O)cc1)*; Nle = CCCC[C@H](N)C(=O)O; Orn = NCCC[C@H](N)C(=O)O; Abu = CC[C@H](N)C(=O)O; GABA = NCCCC(=O)O

Experiments:
GH release [1] = assay: GH releasing potency in vivo, intravenous administration (Example 14, Table 13); design: species or system rat; conditions: i.v.
Method: Male Sprague-Dawley rats, weighing 200-250 g, were purchased from Charles River Laboratory (Wilmington, Mass.) and used for experiments. All animal procedures were approved by the Veterans Affairs Animal Care and Use Committee and were conducted in accordance with additional institutional guidelines as well. Briefly, groups of 5-6 animals were used in each experiment. The rats were anesthetized with 50 mg/kg of sodium pentobarbital (Nembutal, Lundbeck Inc., Deerfield, Ill.). Twenty min after inducing anesthesia, GHRH(1-29)NH2, JI-38, or new analogs were injected into the animals intravenously (i.v.) or subcutaneously (s.c.). The peptides were dissolved in 0.01 M acetic acid to get 1 μg/μl stock solution, and then diluted with 5% mannitol. Control rats received 5% mannitol only. Blood samples were collected from the jugular vein at selected times and were used for serum preparation. Concentrations of GH in rat sera were determined by ELISA. The relative potencies of tested peptides were calculated using GHRH(1-29)NH2 and JI-38 for comparison, whose potency was defined as 1. The equivalent dosage of GHRH(1-29)NH2 to reach the same level of serum growth hormone release after injection of the specific tested peptide was determined from a GHRH(1-29)NH2 standard curve using Origin 6.0 software. […] Serum GH was determined using the rat Growth Hormone ELISA kit (ALPCO Diagnostics, Mill Valley, Calif.) according to the manufacturer's instruction. Absorbance at 405 nm was measured by a Victor 3 Multi-label Counter (Perkin-Elmer, Waltham, Md.).

GH release [2] = assay: GH releasing potency in vivo, subcutaneous administration (Example 14, Table 12); design: species or system rat; conditions: s.c.
How it was run: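 Potency is expressed relative to GHRH(1-29)NH2 and JI-38 (each = 1), via equivalent GHRH(1-29)NH2 dose read from a standard curve. Peptides in 5% mannitol given i.v. or s.c. to anaesthetised male Sprague-Dawley rats (200-250 g); serum GH measured by ELISA at selected times.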

GHRH receptor [3] = target: T1, GHRH receptor (Homo sapiens, UniProt Q02643); assay: GHRH receptor binding, competition with 125I-labeled JV-1-42, human pituitary membrane homogenates (Table 5); design: Normal human pituitaries were purchased from the National Hormone and Peptide Program; tissue National Hormone and Peptide Program (A.F. Parlow, Harbor-UCLA Medical Center, Torrance, Calif.); host or cells: normal human pituitary, membrane fraction
T1 sequence (Q02643 23-423): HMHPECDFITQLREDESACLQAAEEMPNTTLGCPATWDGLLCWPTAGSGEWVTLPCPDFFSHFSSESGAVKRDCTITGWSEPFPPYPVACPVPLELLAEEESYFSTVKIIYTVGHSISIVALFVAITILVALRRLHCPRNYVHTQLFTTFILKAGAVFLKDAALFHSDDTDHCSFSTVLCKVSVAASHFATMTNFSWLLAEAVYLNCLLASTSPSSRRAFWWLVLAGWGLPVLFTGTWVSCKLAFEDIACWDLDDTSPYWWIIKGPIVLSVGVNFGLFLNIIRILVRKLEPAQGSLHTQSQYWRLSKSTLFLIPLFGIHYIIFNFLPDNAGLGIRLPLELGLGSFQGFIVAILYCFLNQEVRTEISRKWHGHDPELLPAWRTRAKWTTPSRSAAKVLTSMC
Method: Normal human pituitaries were purchased from the National Hormone and Peptide Program (A.F. Parlow, Los Angeles, County Harbor-UCLA Medical Center, Torrance, Calif.). Briefly, in competitive binding analysis, ^125I-labeled JV-1-42 ([…]) was displaced by GHRH agonists at 10^−6 to 10^−12 M.
The final binding affinities were expressed as IC50 values and were calculated by using the LIGAND PC computerized curve-fitting program of Munson and Rodbard as modified by McPherson.

GHRH receptor [4] = target: T1, GHRH receptor; assay: Receptor binding in vitro, 125I-labeled [His1,Nle27]-hGHRH(1-32)NH2, membrane receptors of human anterior pituitary cells (Table 14)
GH release [5] = assay: In vivo endocrine activity, GH release after intravenous administration (Table 8); conditions: rat, i.v. injection
GHRH receptor [6] = target: T1, GHRH receptor; assay: GHRH receptor binding, competition with 125I-labeled JV-1-42, human pituitary membrane homogenates (Table 7); design: Normal human pituitaries were purchased from the National Hormone and Peptide Program; tissue National Hormone and Peptide Program (A.F. Parlow, Harbor-UCLA Medical Center, Torrance, Calif.); host or cells: normal human pituitary, membrane fraction; conditions: JI-38 = 1, Table 7
From the text: Normal human pituitaries were purchased from the National Hormone and Peptide Program (A.F. Parlow, Los Angeles, County Harbor-UCLA Medical Center, Torrance, Calif.).

GH release [7] = assay: In vivo endocrine activity, GH release after subcutaneous administration (Table 9); conditions: rat, subcutaneous (s.c.) injection
Method: Subcutaneous Administration. Adult male rats were used and anesthetized with pentobarbital (6 mg/100 g, b.w.), by i.p. injection. […] Blood samples were taken from the jugular vein 5, 15 and/or 30 minutes after the injection. The blood samples were centrifuged, plasma was removed and the GH level was measured byELISA. The results are summarized in terms of potency in Table 9.

- Relative affinity (Binding potency) vs GHRH (GHRH receptor [3]; GHRH(1-29) = 1, Table 5): 81.2
- Relative affinity (Binding potency) vs JI-38 (GHRH receptor [3]; JI-38 = 1, Table 5): 34.2
- Relative affinity (Binding potency) compared to JI-38 (GHRH receptor [4]; JI-38 = 1): 0.83
- Relative affinity (Binding potency) compared to hGHRH(1-29) (GHRH receptor [4]; hGHRH(1-29)NH2 = 1): 2.31
- Relative affinity (Binding potency) vs JI-38 (GHRH receptor [6]): 5.06
SMILES: CCCC[C@H](NC(=O)[C@@H](NC(=O)[C@H](CC(=O)O)NC(=O)[C@H](CCC(N)=O)NC(=O)[C@H](CC(C)C)NC(=O)[C@H](CC(C)C)NC(=O)[C@H](CCCN)NC(=O)[C@H](CCCNC(=N)N)NC(=O)[C@H](C)NC(=O)[C@H](CO)NC(=O)[C@H](CC(C)C)NC(=O)[C@H](CCC(N)=O)NC(=O)[C@H](CC)NC(=O)[C@H](CC(C)C)NC(=O)[C@@H](NC(=O)[C@H](CCCN)NC(=O)[C@H](CCCNC(=N)N)NC(=O)[C@H](Cc1ccc(O)cc1)NC(=O)[C@H](CO)NC(=O)[C@H](CC(N)=O)NC(=O)[C@@H](NC(=O)[C@H](Cc1ccccc1)NC(=O)[C@@H](NC(=O)[C@H](C)NC(=O)[C@H](CC(=O)O)NC(=O)[C@@H](C)NC(=O)CCc1ccc(O)cc1)[C@@H](C)CC)[C@@H](C)O)C(C)C)[C@@H](C)CC)C(=O)N[C@@H](CO)C(=O)N[C@@H](CCCNC(=N)N)C(=O)N[C@@H](CCC(N)=O)C(=O)NCCCC(N)=O [Peptide P-29702, [Dat^1, D-Ala^2, Orn^12, Abu^15, Orn^21, Nle^27, Gln-Gab^30]hGHRH(1-30)NH2] (Desaminotyrosyl-[dA]DAIFTNSYR[Orn]VL[Abu]QLSAR[Orn]LLQDI[Nle]SRQ[GABA]-NH2)
- Relative potency, 5 min (GH release [1]; 5 min, JI-38 = 1): 1.07
- Relative potency, 15 min (GH release [1]; 15 min, JI-38 = 1): 1.38
- Serum GH level at selected time after injection (ng/ml), 0 min (GH release [1]; dose 1 μg/kg, 0 min, mean ± SEM): 47.7 ± 3.4 ng/mL
- Serum GH level at selected time after injection (ng/ml), 5 min (GH release [1]; dose 1 μg/kg, 5 min, mean ± SEM): 578 ± 87.7 ng/mL
- Serum GH level at selected time after injection (ng/ml), 15 min (GH release [1]; dose 1 μg/kg, 15 min, mean ± SEM): 273 ± 40.8 ng/mL
- Serum GH level at selected time after injection (ng/ml), 0 min (GH release [2]; male rats, dose 3 μg/kg, 0 min, mean ± SEM): 43.7 ± 5^ ng/ml
- Serum GH level at selected time after injection (ng/ml), 15 min (GH release [2]; male rats, dose 3 μg/kg, 15 min, mean ± SEM): 103.7 ± 23.1 ng/mL
- Serum GH level at selected time after injection (ng/ml), 30 min (GH release [2]; male rats, dose 3 μg/kg, 30 min, mean ± SEM): 85 ± 27.8 ng/mL
- Relative potency compared to GHRH(1-29), 15 min (GH release [2]; 15 min): 22.4
- Relative potency compared to JI-38, 15 min (GH release [2]; 15 min): 0.35
- Relative potency compared to GHRH(1-29), 30 min (GH release [2]; 30 min): 53.5
- Relative potency compared to JI-38, 30 min (GH release [2]; 30 min): 0.48
- GH releasing potency in vivo relative to JI-38 (=1) (GH release [5]; 5 min after): 0.98
- GH releasing potency in vivo relative to JI-38 (=1) (GH release [5]; 15 min after): 0.99
- GH releasing potency in vivo relative to JI-38 (=1) (GH release [5]; 30 min after): 1.22
- GH releasing potency relative to JI-38 (=1) (GH release [7]; 15 min after): 0.53
- GH releasing potency relative to JI-38 (=1) (GH release [7]; 30 min after): 0.73
